Assay results: PubChem BioAssay (NCI)
“And” between values parts separate entries of the source, which are not always exact repeats. Equal values may be shown once.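 96-well plates; 48 h exposure; 5 concentrations. Endpoints by linear interpolation between flanking doses. Not reached: highest tested concentration assigned. Abbreviation: GI50, concentration required for 50% inhibition of growth. TGI is the concentration that stops growth completely.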

What follows are compounds tested on SR leukemia (assay: DTP human tumour cell line panel, 48 h).

Row | SMILES | GI50 | TGI
1 | OC1CSSC1Cn1cnc2c(Nc3ccc(OCc4cccc(F)c4)c(Cl)c3)ncnc21 (stereo not given) | 0.407 µM | 1.59 µM
2 | C=CCOc1ccc2c(C)cc(=O)oc2c1C | – | > 100 µM
3 | Nc1c(C(=O)c2cccc(CCS(N)(=O)=O)c2)cnn1-c1ccc(F)cc1 | > 25 µM | > 25 µM
4 | COc1cc2cc(OC)c3cc4c(cc3c2c(OC)c1OC)OCO4 | – | 82.6 µM
5 | CCCCCCCCCCCCCC(=O)OC(/C=C/C(C)C)C(O)C(O)C(OC)C(=O)NC1CCCCN(C)C1=O (stereo not given) | 1.12 µM | 4.78 µM and 5.75 µM
6 | C[C@@H](Oc1cc(-n2cnc3ccc(CN4CCN(C)CC4)cc32)sc1C(N)=O)c1ccccc1C(F)(F)F | < 0.01 µM and 0.00514 µM | 1.75 µM and 1.44 µM
7 | CCN(CC)CCSc1c2ccccc2nc2cc(NCC(=O)Nc3ccccc3-c3ccccc3NC(=O)CNc3ccc4c(SCCN(CC)CC)c5ccccc5nc4c3)ccc12 | – | > 100 µM
8 | O=C(CCNC12CC3CC(CC(C3)C1)C2)c1ccccc1 | – | 37.1 µM
9 | COc1cccc(-c2cc(-c3cccc(NS(C)(=O)=O)c3)nc(N)c2C#N)c1O | 0.0562 µM | > 100 µM
10 | Cc1ccsc1C(=S)Nc1ccc(Cl)c(/C=N/OC(C)(C)C)c1 | – | 61.7 µM
11 | NC(=O)NO.O.O.O.O.O.O.O.O.O.O.O.[Ge].[Ge].[Ge].[Ge].[Ge].[O]=[Ge].[O]=[Ge].[O]=[Ge].[O]=[Ge].[O]=[Ge][OH] | – | > 100 µM
12 | CN(C)C(=S)N=C(Nc1ccccc1)Nc1ccccc1 | – | > 100 µM
13 | NC(N)=NS(=O)(=O)c1ccc(Nc2c3ccccc3nc3c(C(=O)NCCO)cccc23)cc1 | 30.7 µM | –
14 | COc1cccc(C2c3cc4c(cc3OC(C)(N3CCCC3)C2C)OCO4)c1O (stereo not given) | – | 19.3 µM
15 | O=C1NC(=NCCc2cccc(F)c2)S/C1=C\c1ccc2ncccc2c1 | 0.121 µM | > 25 µM
16 | COc1cc(/C=N\NC(=O)CN2CCN(c3cc4c(cc3F)c(=O)c(C(=O)N/N=C/c3cc(OC)c(OC)c(OC)c3)cn4C3CC3)CC2)cc(OC)c1OC | 0.324 µM | > 100 µM
17 | O=C(O)CCC(NC(=O)c1ccc(Nc2nc3ccccc3nc2-c2cccs2)cc1)C(=O)O (stereo not given) | – | > 100 µM
18 | Cc1ccc(NC(=O)Nc2ccc(-c3cccnc3)cc2N2CCC(CO)CC2)cc1 | 2.83 µM | > 100 µM

Each compound was assayed on UACC-62 melanoma (assay: DTP human tumour cell line panel, 48 h).

Row | SMILES | GI50 | TGI
19 | CN(C)c1ccc(/C=C\C2=[N+](C)c3ccccc3C2(C)C)cc1 | 1.49 µM | 19.9 µM
20 | COc1cc2c(c3oc4c(O)cccc4c(=O)c13)CC(C(C)(O)CO)O2 (stereo not given) | – | > 100 µM
21 | CC(=O)OC1OC([C@@H]2c3cccc(O)c3C(=O)c3c(O)cc(C)cc32)C(O)C(O)C1O (stereo not given in full) | 0.0211 µM | 1.52 µM
22 | C[N+](C)(C)CC(=O)N/N=C(/CC(=O)CC(C1=C(O)c2ccccc2OC1)c1ccccc1)C(=O)Nc1cccc(Cl)c1 (stereo not given) | – | > 100 µM
23 | O=C1/C(=C/c2ccc(O)c(O)c2)CCC/C1=C\c1ccc(O)c(O)c1 | – | 30.2 µM
24 | COC(=O)/C=C1\S/C(=N\NC(=O)c2cc3ccc2/C=C\c2ccc(cc2)/C=C\3)N(c2ccccc2)C1=O | 1.96 µM | 4.21 µM
25 | COC([CH2][Hg][n]1cnc2c1c(=O)n(C)c(=O)n2C)CN1C(=O)c2ccccc2S1(=O)=O (stereo not given) | > 100 µM | > 100 µM
26 | CN1CCCCC1CCN1c2ccccc2Sc2ccc(Cl)cc21 (stereo not given) | 2.16 µM | 5.61 µM
27 | C=C(C)C(OC)C(O)CC1(C)CC(O)CC(C)(C2CCC3OC(C4(C)CCC(Br)C(C)(C)O4)CCC3(C)O2)O1 (stereo not given) | 19 µM | 39.5 µM
28 | COc1cc2c(cc1OCCCCN1CCN(CC(=O)Nc3ccc(Cl)cc3C(=O)c3ccccc3Cl)CC1)N=CC1CCCN1C2=O (stereo not given) | 0.186 µM | 0.355 µM
29 | O=C(CCc1nc(=S)[nH][nH]1)Nc1ccc(Cl)c(Cl)c1 | – | 22 µM
30 | O=C(Nc1ccccc1)c1c(O)[nH]c(=S)[nH]c1=O | 33 µM | 55.2 µM and 162 µM
31 | OC1CSSC1Cn1cnc2c(Nc3ccc(OCc4cccc(F)c4)c(Cl)c3)ncnc21 (stereo not given) | 0.971 µM | 2.71 µM
32 | C=CCOc1ccc2c(C)cc(=O)oc2c1C | – | > 100 µM
33 | Nc1c(C(=O)c2cccc(CCS(N)(=O)=O)c2)cnn1-c1ccc(F)cc1 | > 25 µM | > 25 µM
34 | COc1cc2cc(OC)c3cc4c(cc3c2c(OC)c1OC)OCO4 | – | > 64.4 µM
35 | CCCCCCCCCCCCCC(=O)OC(/C=C/C(C)C)C(O)C(O)C(OC)C(=O)NC1CCCCN(C)C1=O (stereo not given) | – | 6.15 µM and > 49 µM
36 | C[C@@H](Oc1cc(-n2cnc3ccc(CN4CCN(C)CC4)cc32)sc1C(N)=O)c1ccccc1C(F)(F)F | 0.0326 µM and 0.0382 µM | 16.7 µM and > 10 µM
37 | CCN(CC)CCSc1c2ccccc2nc2cc(NCC(=O)Nc3ccccc3-c3ccccc3NC(=O)CNc3ccc4c(SCCN(CC)CC)c5ccccc5nc4c3)ccc12 | – | > 100 µM
38 | O=C(CCNC12CC3CC(CC(C3)C1)C2)c1ccccc1 | – | 39.6 µM
39 | COc1cccc(-c2cc(-c3cccc(NS(C)(=O)=O)c3)nc(N)c2C#N)c1O | 0.064 µM | > 100 µM
40 | Cc1ccsc1C(=S)Nc1ccc(Cl)c(/C=N/OC(C)(C)C)c1 | – | > 100 µM
41 | NC(=O)NO.O.O.O.O.O.O.O.O.O.O.O.[Ge].[Ge].[Ge].[Ge].[Ge].[O]=[Ge].[O]=[Ge].[O]=[Ge].[O]=[Ge].[O]=[Ge][OH] | – | 53.5 µM
42 | CN(C)C(=S)N=C(Nc1ccccc1)Nc1ccccc1 | – | > 100 µM
43 | NC(N)=NS(=O)(=O)c1ccc(Nc2c3ccccc3nc3c(C(=O)NCCO)cccc23)cc1 | 18.1 µM | –
44 | COc1cccc(C2c3cc4c(cc3OC(C)(N3CCCC3)C2C)OCO4)c1O (stereo not given) | – | 46.8 µM
45 | O=C1NC(=NCCc2cccc(F)c2)S/C1=C\c1ccc2ncccc2c1 | 5.41 µM | > 25 µM
46 | COc1cc(/C=N\NC(=O)CN2CCN(c3cc4c(cc3F)c(=O)c(C(=O)N/N=C/c3cc(OC)c(OC)c(OC)c3)cn4C3CC3)CC2)cc(OC)c1OC | 0.231 µM | 0.583 µM
47 | O=C(O)CCC(NC(=O)c1ccc(Nc2nc3ccccc3nc2-c2cccs2)cc1)C(=O)O (stereo not given) | – | > 100 µM
48 | Cc1ccc(NC(=O)Nc2ccc(-c3cccnc3)cc2N2CCC(CO)CC2)cc1 | 2.3 µM | 6.18 µM

The compounds below were run on KM12 colon (assay: DTP human tumour cell line panel, 48 h).

Row | SMILES | GI50 | TGI
49 | CN(C)c1ccc(/C=C\C2=[N+](C)c3ccccc3C2(C)C)cc1 | 0.369 µM | 4.46 µM
50 | CC(=O)OC1OC([C@@H]2c3cccc(O)c3C(=O)c3c(O)cc(C)cc32)C(O)C(O)C1O (stereo not given in full) | < 0.01 µM | –
51 | C[N+](C)(C)CC(=O)N/N=C(/CC(=O)CC(C1=C(O)c2ccccc2OC1)c1ccccc1)C(=O)Nc1cccc(Cl)c1 (stereo not given) | – | > 100 µM
52 | O=C1/C(=C/c2ccc(O)c(O)c2)CCC/C1=C\c1ccc(O)c(O)c1 | – | 13.8 µM
53 | COC(=O)/C=C1\S/C(=N\NC(=O)c2cc3ccc2/C=C\c2ccc(cc2)/C=C\3)N(c2ccccc2)C1=O | 2.03 µM | 4.15 µM
54 | COC([CH2][Hg][n]1cnc2c1c(=O)n(C)c(=O)n2C)CN1C(=O)c2ccccc2S1(=O)=O (stereo not given) | > 100 µM | > 100 µM
55 | CN1CCCCC1CCN1c2ccccc2Sc2ccc(Cl)cc21 (stereo not given) | 2.77 µM | 7.38 µM
56 | C=C(C)C(OC)C(O)CC1(C)CC(O)CC(C)(C2CCC3OC(C4(C)CCC(Br)C(C)(C)O4)CCC3(C)O2)O1 (stereo not given) | 17.5 µM | 36.7 µM
57 | COc1cc2c(cc1OCCCCN1CCN(CC(=O)Nc3ccc(Cl)cc3C(=O)c3ccccc3Cl)CC1)N=CC1CCCN1C2=O (stereo not given) | 0.215 µM | 0.497 µM
58 | O=C(CCc1nc(=S)[nH][nH]1)Nc1ccc(Cl)c(Cl)c1 | – | > 100 µM
59 | O=C(Nc1ccccc1)c1c(O)[nH]c(=S)[nH]c1=O | 69.9 µM | 111 µM and > 250 µM
60 | OC1CSSC1Cn1cnc2c(Nc3ccc(OCc4cccc(F)c4)c(Cl)c3)ncnc21 (stereo not given) | 0.386 µM | 1.43 µM
61 | C=CCOc1ccc2c(C)cc(=O)oc2c1C | – | > 100 µM
62 | Nc1c(C(=O)c2cccc(CCS(N)(=O)=O)c2)cnn1-c1ccc(F)cc1 | > 25 µM | > 25 µM
63 | COc1cc2cc(OC)c3cc4c(cc3c2c(OC)c1OC)OCO4 | – | > 51.2 µM
64 | CCCCCCCCCCCCCC(=O)OC(/C=C/C(C)C)C(O)C(O)C(OC)C(=O)NC1CCCCN(C)C1=O (stereo not given) | – | 7.49 µM and > 49 µM
65 | C[C@@H](Oc1cc(-n2cnc3ccc(CN4CCN(C)CC4)cc32)sc1C(N)=O)c1ccccc1C(F)(F)F | < 0.012 µM and 0.00556 µM | 12.7 µM and > 10 µM
66 | CCN(CC)CCSc1c2ccccc2nc2cc(NCC(=O)Nc3ccccc3-c3ccccc3NC(=O)CNc3ccc4c(SCCN(CC)CC)c5ccccc5nc4c3)ccc12 | – | > 100 µM
67 | O=C(CCNC12CC3CC(CC(C3)C1)C2)c1ccccc1 | – | 91.1 µM
68 | COc1cccc(-c2cc(-c3cccc(NS(C)(=O)=O)c3)nc(N)c2C#N)c1O | 0.107 µM | > 100 µM
69 | Cc1ccsc1C(=S)Nc1ccc(Cl)c(/C=N/OC(C)(C)C)c1 | – | > 100 µM
70 | NC(=O)NO.O.O.O.O.O.O.O.O.O.O.O.[Ge].[Ge].[Ge].[Ge].[Ge].[O]=[Ge].[O]=[Ge].[O]=[Ge].[O]=[Ge].[O]=[Ge][OH] | – | > 100 µM
71 | CN(C)C(=S)N=C(Nc1ccccc1)Nc1ccccc1 | – | > 100 µM
72 | NC(N)=NS(=O)(=O)c1ccc(Nc2c3ccccc3nc3c(C(=O)NCCO)cccc23)cc1 | 15.4 µM | –
73 | COc1cccc(C2c3cc4c(cc3OC(C)(N3CCCC3)C2C)OCO4)c1O (stereo not given) | – | 27.4 µM
74 | O=C1NC(=NCCc2cccc(F)c2)S/C1=C\c1ccc2ncccc2c1 | 1.07 µM | > 25 µM
75 | O=C(O)CCC(NC(=O)c1ccc(Nc2nc3ccccc3nc2-c2cccs2)cc1)C(=O)O (stereo not given) | – | > 100 µM
